# Laboratory results reported in patent US6683063B2, “Prevention and treatment of pulmonary bacterial infection or symptomatic pulmonary exposure to endotoxin by inhalation of antiendotoxin drugs” (Eisai Co., Ltd., priority 1995, dated 2004).
# Tested on: LPS-induced TNF-α in human whole blood
# Assay: Persistence of compounds in human whole blood (preincubation, then LPS challenge, cytokine assay)
# Format: cell-based
# Conditions: average of 7 separate experiments in triplicate, FIG. 3
# Procedure: FIG. 2 depicts the general scheme used to analyze antagonistic efficacy of drug after incubation in whole blood for various times.
# Although some of the compounds of this invention are not rapidly removed from the circulation, their activity diminishes with a half-life of 1-3 hours. To maintain antagonistic efficacy, this rapid deactivation may require continuous administration. The study of this deactivation has led to the development of an assay to measure in vitro deactivation of drugs in human whole blood. This is done by preincubating lipid A antagonists with blood for various periods of time followed by addition of the LPS “challenge,” as is described above, incubation for three hours, and assay for released cytokines.
compound,measurement,value
CCCCCCCCCCCC(=O)CC(=O)N[C@H]1[C@@H](OP(=O)(O)O)OC(CO[C@@H]2O[C@H](COC)[C@@H](OP(=O)(O)O)C(OCCC(CCCCCCC)OC(=O)CCC/C=C/C(C)CCCC)[C@H]2NC(=O)CC(=O)CCCCCCCCCCC)[C@@H](O)[C@@H]1OCC[C@H](O)CCCCCCC (stereo partly shown) [Compound B531],persistence of LPS-antagonist activity (inhibition of TNF-α) versus time of preincubation,loses activity with increasing time of preincubation
